Data taken from patent US12384770B2, “Heterocyclic compound” (Takeda Pharmaceutical Company Limited, priority 2019, dated 2025).

Target: T1, HDAC6 enzyme (Homo sapiens, UniProt Q9UBN7)
T1 construct: HDAC6 enzyme prepared by transducing full length HDAC6 gene into Sf-9 insect cells; GST; purchased SignalChem; host or cells: Sf-9 insect cells
T1 sequence (Q9UBN7 1-1215): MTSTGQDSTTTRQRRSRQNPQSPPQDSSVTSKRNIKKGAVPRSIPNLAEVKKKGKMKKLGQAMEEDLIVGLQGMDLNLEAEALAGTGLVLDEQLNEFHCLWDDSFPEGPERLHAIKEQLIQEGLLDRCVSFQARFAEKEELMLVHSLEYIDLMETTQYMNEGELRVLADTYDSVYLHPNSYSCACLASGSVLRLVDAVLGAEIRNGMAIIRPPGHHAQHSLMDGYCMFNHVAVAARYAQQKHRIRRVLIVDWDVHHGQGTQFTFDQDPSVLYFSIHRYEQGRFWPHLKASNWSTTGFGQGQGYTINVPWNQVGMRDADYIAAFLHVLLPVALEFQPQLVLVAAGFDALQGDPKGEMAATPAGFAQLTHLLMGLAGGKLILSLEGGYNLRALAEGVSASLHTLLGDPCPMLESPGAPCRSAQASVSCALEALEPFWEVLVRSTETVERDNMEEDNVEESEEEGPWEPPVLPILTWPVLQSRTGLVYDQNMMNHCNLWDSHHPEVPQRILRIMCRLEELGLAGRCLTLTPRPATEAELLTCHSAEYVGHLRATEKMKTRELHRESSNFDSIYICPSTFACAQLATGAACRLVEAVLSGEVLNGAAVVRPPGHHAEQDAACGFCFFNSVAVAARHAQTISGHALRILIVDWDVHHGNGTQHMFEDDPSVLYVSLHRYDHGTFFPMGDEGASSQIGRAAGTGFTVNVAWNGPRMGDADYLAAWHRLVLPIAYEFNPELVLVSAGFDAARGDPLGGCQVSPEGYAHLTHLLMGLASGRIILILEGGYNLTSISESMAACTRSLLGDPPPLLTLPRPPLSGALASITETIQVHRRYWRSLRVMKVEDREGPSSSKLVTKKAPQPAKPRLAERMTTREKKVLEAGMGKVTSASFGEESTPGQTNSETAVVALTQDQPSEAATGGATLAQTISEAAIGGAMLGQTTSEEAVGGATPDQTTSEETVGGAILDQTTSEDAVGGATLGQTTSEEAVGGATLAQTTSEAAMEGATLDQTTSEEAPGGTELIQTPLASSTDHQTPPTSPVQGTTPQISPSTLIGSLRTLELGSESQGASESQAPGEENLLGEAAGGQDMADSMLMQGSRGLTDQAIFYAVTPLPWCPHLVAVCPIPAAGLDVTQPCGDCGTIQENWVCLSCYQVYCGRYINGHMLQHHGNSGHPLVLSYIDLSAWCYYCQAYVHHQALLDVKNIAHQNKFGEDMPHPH
Assay: HDAC6 enzyme inhibitory assay (HDAC-Glo I/II Assay kit)
Format: biochemical
Conditions: wells without enzyme = 100% inhibition, read-out: HDAC6 inhibitory rate (%) (10 μM)
Procedure: Experimental Example 1 HDAC6 Enzyme Inhibitory Assay
HDAC6 enzyme prepared by transducing full length HDAC6 gene into Sf-9 insect cells and purifying by GST affinity column were purchased from SignalChem. Using this enzyme, HDAC6 enzyme inhibitory activity of the compound of the present invention were evaluated. Enzymes were used after preserved at −70° C. HDAC6 enzyme inhibitory activity of the compound of the present invention was measured using HDAC-Glo™ I/II Assay kit (Promega) according to the following experimental method. The test compound diluted with assay buffer (24 mM Tris-HCl (pH 7.5), 1 mM MgCl2, 0.35 mM KCl, 135 mM NaCl, 0.6 mM Glutathione, 0.01% Tween-20) was added to a 384-well plate by each 2 μL. Then, HDAC6 enzyme solution diluted with assay buffer was added thereto by each 4 μL, and the plate was incubated at room temperature for 60 min. After incubated, HDAC substrate-Developer solution prepared according to Promega protocol attached to the assay kit was added to the 384-well plate by each 2 μL, and the enzyme reaction was started. After reacting at room temperature for 20 min, luminescence level was measured using plate reader Envision (PerkinElmer). The inhibitory activity of each compound of Example was calculated as a relative activity value when luminescence level in wells without enzyme is considered as 100% inhibition.

inhibition at 10 µM [%]	SMILES
101	O=C1c2cc(-c3nnc(C(F)F)o3)ccc2CN1[C@H](C1CCOCC1)[C@@H](O)c1ccc(F)c(Cl)c1 (racemic) [Example 107, 2-[(1RS,2SR)-2-(3-chloro-4-fluorophenyl)-2-hydroxy-1-(oxan-4-yl)ethyl]-6-[5-(difluoromethyl)-1,3,4-oxadiazol-2-yl]-2,3-dihydro-1H-isoindol-1-one]
101	O=C1c2cc(-c3nnc(C(F)F)o3)ccc2CN1[C@H](C1CCOCC1)[C@@H](O)c1cccc(C(F)(F)F)c1 (racemic) [Example 116, 6-[5-(difluoromethyl)-1,3,4-oxadiazol-2-yl]-2-{(1RS,2SR)-2-hydroxy-1-(oxan-4-yl)-2-[3-(trifluoromethyl)phenyl]ethyl}-2,3-dihydro-1H-isoindol-1-one]
100	O=C1c2cc(-c3nnc(C(F)F)o3)ccc2CN1[C@H](c1ncccn1)[C@@H](O)c1cccc(Cl)c1 (racemic) [Example 133, 2-[(1RS,2SR)-2-(3-chlorophenyl)-2-hydroxy-1-(pyrimidin-2-yl)ethyl]-6-[5-(difluoromethyl)-1,3,4-oxadiazol-2-yl]-2,3-dihydro-1H-isoindol-1-one]
101	O=C1c2cc(-c3nnc(C(F)F)o3)ccc2CN1[C@H](c1ncccn1)[C@@H](O)c1ccc(F)cc1 (racemic) [Example 134, 6-[5-(difluoromethyl)-1,3,4-oxadiazol-2-yl]-2-[(1RS,2SR)-2-(4-fluorophenyl)-2-hydroxy-1-(pyrimidin-2-yl)ethyl]-2,3-dihydro-1H-isoindol-1-one]
99	O=C1c2cc(-c3nnc(C(F)F)o3)ccc2CN1[C@H](c1ccccn1)[C@H](O)c1ccccn1 (racemic) [Example 135, 6-[5-(difluoromethyl)-1,3,4-oxadiazol-2-yl]-2-[(1RS,2SR)-2-hydroxy-1,2-di(pyridin-2-yl)ethyl]-2,3-dihydro-1H-isoindol-1-one]
99	O=C1c2cc(-c3nnc(C(F)F)o3)ccc2CN1[C@H](c1ncccn1)[C@H](O)c1cccc(F)c1 (racemic) [Example 136, 6-[5-(difluoromethyl)-1,3,4-oxadiazol-2-yl]-2-[(1RS,2RS)-2-(3-fluorophenyl)-2-hydroxy-1-(pyrimidin-2-yl)ethyl]-2,3-dihydro-1H-isoindol-1-one]
99	O=C1c2cc(-c3nnc(C(F)F)o3)ccc2CN1[C@@H](c1ccc(F)cc1)[C@@H](O)c1ccccc1 (racemic) [Example 138, 6-[5-(difluoromethyl)-1,3,4-oxadiazol-2-yl]-2-[(1SR,2SR)-1-(4-fluorophenyl)-2-hydroxy-2-phenylethyl]-2,3-dihydro-1H-isoindol-1-one]

Continued, compound first:

SMILES	inhibition at 10 µM [%]
N#Cc1ccc([C@H]([C@@H](O)c2ccccc2)N2Cc3ccc(-c4nnc(C(F)F)o4)cc3C2=O)cc1 (racemic) [Example 41, 4-[(1RS,2SR)-1-{6-[5-(difluoromethyl)-1,3,4-oxadiazol-2-yl]-1-oxo-1,3-dihydro-2H-isoindol-2-yl}-2-hydroxy-2-phenylethyl]benzonitrile]	100
Cn1cc([C@H]([C@@H](O)c2ccccc2)N2Cc3ccc(-c4nnc(C(F)F)o4)cc3C2=O)cn1 (racemic) [Example 42, 6-[5-(difluoromethyl)-1,3,4-oxadiazol-2-yl]-2-[(1RS,2SR)-2-hydroxy-1-(1-methyl-1H-pyrazol-4-yl)-2-phenylethyl]-2,3-dihydro-1H-isoindol-1-one]	100
Cn1cc([C@H]([C@@H](O)c2ccc(F)cc2)N2Cc3ccc(-c4nnc(C(F)F)o4)cc3C2=O)cn1 (racemic) [Example 43, 6-[5-(difluoromethyl)-1,3,4-oxadiazol-2-yl]-2-[(1RS,2SR)-2-(4-fluorophenyl)-2-hydroxy-1-(1-methyl-1H-pyrazol-4-yl)ethyl]-2,3-dihydro-1H-isoindol-1-one]	100
CCOc1ccc([C@H](O)[C@@H](c2ccccc2)N2Cc3ccc(-c4nnc(C(F)F)o4)cc3C2=O)cn1 (racemic) [Example 44, 6-[5-(difluoromethyl)-1,3,4-oxadiazol-2-yl]-2-[(1RS,2SR)-2-(6-ethoxypyridin-3-yl)-2-hydroxy-1-phenylethyl]-2,3-dihydro-1H-isoindol-1-one]	100
CCOc1ccc([C@H]([C@@H](O)c2ccc(F)c(F)c2)N2Cc3ccc(-c4nnc(C(F)F)o4)cc3C2=O)cn1 (racemic) [Example 53, 6-[5-(difluoromethyl)-1,3,4-oxadiazol-2-yl]-2-[(1RS,2SR)-2-(3,4-difluorophenyl)-1-(6-ethoxypyridin-3-yl)-2-hydroxyethyl]-2,3-dihydro-1H-isoindol-1-one]	100
O=C1c2cc(-c3nnc(C(F)F)o3)ccc2CN1[C@H](c1ccc(F)nc1)[C@@H](O)c1ccc(F)c(F)c1 (racemic) [Example 56, 6-[5-(difluoromethyl)-1,3,4-oxadiazol-2-yl]-2-[(1RS,2SR)-2-(3,4-difluorophenyl)-1-(6-fluoropyridin-3-yl)-2-hydroxyethyl]-2,3-dihydro-1H-isoindol-1-one]	100
O=C1c2cc(-c3nnc(C(F)F)o3)ccc2CN1[C@H](c1ccc(F)cc1)[C@@H](O)c1ccc(F)nc1 (racemic) [Example 58, 6-[5-(difluoromethyl)-1,3,4-oxadiazol-2-yl]-2-[(1RS,2SR)-1-(4-fluorophenyl)-2-(6-fluoropyridin-3-yl)-2-hydroxyethyl]-2,3-dihydro-1H-isoindol-1-one]	100
O=C1c2cc(-c3nnc(C(F)F)o3)ccc2CN1[C@H](C1CC1)[C@@H](O)c1ccc(Cl)cn1 (racemic) [Example 65, 2-[(1RS,2RS)-2-(5-chloropyridin-2-yl)-1-cyclopropyl-2-hydroxyethyl]-6-[5-(difluoromethyl)-1,3,4-oxadiazol-2-yl]-2,3-dihydro-1H-isoindol-1-one]	98
O=C1c2cc(-c3nnc(C(F)F)o3)ccc2CN1[C@H](C1CCC(F)(F)CC1)[C@@H](O)c1ccccn1 (racemic) [Example 81, 2-[(1RS,2RS)-1-(4,4-difluorocyclohexyl)-2-hydroxy-2-(pyridin-2-yl)ethyl]-6-[5-(difluoromethyl)-1,3,4-oxadiazol-2-yl]-2,3-dihydro-1H-isoindol-1-one]	100
O=C1c2cc(-c3nnc(C(F)F)o3)ccc2CN1[C@H](C1CCC(F)(F)CC1)[C@@H](O)c1ccc(F)nc1 (racemic) [Example 82, 2-[(1RS,2SR)-1-(4,4-difluoro-cyclohexyl)-2-(6-fluoropyridin-3-yl)-2-hydroxyethyl]-6-[5-(difluoromethyl)-1,3,4-oxadiazol-2-yl]-2,3-dihydro-1H-isoindol-1-one]	100
O=C1c2cc(-c3nnc(C(F)F)o3)ccc2CN1[C@H](c1ncccn1)[C@@H](O)c1ccc(Cl)cc1 (racemic) [Example 93, 2-[(1RS,2SR)-2-(4-chlorophenyl)-2-hydroxy-1-(pyrimidin-2-yl)ethyl]-6-[5-(difluoromethyl)-1,3,4-oxadiazol-2-yl]-2,3-dihydro-1H-isoindol-1-one]	100
O=C1c2cc(-c3nnc(C(F)F)o3)ccc2CN1[C@H](C1CCOCC1)[C@@H](O)c1cc(F)cc(Cl)c1 (racemic) [Example 106, 2-[(1RS,2SR)-2-(3-chloro-5-fluorophenyl)-2-hydroxy-1-(oxan-4-yl)ethyl]-6-[5-(difluoromethyl)-1,3,4-oxadiazol-2-yl]-2,3-dihydro-1H-isoindol-1-one]	100
